Type in all cases: in vivo
The subject of one experiment is Rhipicephalus sanguineus. Put plainly: Rhipicephalus sanguineus in vitro contact test with adult brown dog ticks. The following applies: application rate 5 μg/cm^2 (=500 g/ha); after 48 h. An outline of the steps:
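Glass tubes coated with compound in acetone (900 ppm solution giving 5 μg/cm^2), then 5-10 adult ticks held in the dark at room temperature and ambient humidity. At 48 h, ticks placed on a 45-50° C. hotplate for up to 5 min; motionless or uncoordinated ones scored dead/moribund, giving % efficacy.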

In the next experiment the test system is Phaedon cochleariae. Nature of the experiment: Phaedon cochleariae spray test. The following applies: application rate 500 g/ha, after 7 days. The gist of the method:
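Chinese cabbage leaf discs sprayed with compound formulated in acetone/DMF and water with 1000 ppm emulsifier, then infested with mustard beetle larvae once dry. Percent larval kill scored after 7 days (100% = all dead, 0% = none).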

Experiment [1] relates to Anopheles gambiae strain RSPH (homozygot kdr). Put plainly: Anopheles test (ANPHGB surface treatment). The following applies: 24 hours after contact, read-out: efficacy (mortality in %).
A further experiment has as its system Spodoptera frugiperda. Nature of the experiment: Spodoptera frugiperda spray test. The following applies: application rate 500 g/ha, after 7 days. An outline of the steps:
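Maize leaf discs sprayed with compound formulated in acetone/dimethylformamide and diluted in water with 1000 ppm alkylaryl polyglycol ether emulsifier. Once dry, discs are infested with fall armyworm caterpillars. Efficacy in % read after 7 days: 100% all caterpillars killed, 0% none killed.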

Experiment [2] concerns Ctenocephalides felis. Put plainly: Ctenocephalides felis oral test. The following applies: application rate 100 ppm in citrated cattle blood; after 2 days. The gist of the method:
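About 20 unfed adult cat fleas fed via parafilm membrane on citrated cattle blood containing compound (DMSO formulation). Kill % scored after 2 days, 100% meaning all fleas dead.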

For a further experiment, the system named is Nilaparvata lugens. Put plainly: Nilaparvata lugens test. The following applies: application rate 500 g/ha; after 4 days. Here is the method: (§1) Solvent: 78.0 parts by weight of acetone • • 1.5 parts by weight of dimethylformamide
(§2) Emulsifier: alkylaryl polyglycol ether
(§3) To produce a suitable active compound formulation, 1 part by weight of active compound is dissolved with the specified parts by weight of solvent and made up to the desired concentration with water containing an emulsifier concentration of 1000 ppm. To produce further test concentrations, the formulation is diluted with emulsifier-containing water.
Rice plants (Oryza sativa) are sprayed with the active compound formulation of the desired concentration and then infected with the brown planthopper (Nilaparvata lugens).
After 4 days, the efficacy in % is determined. 100% means that all of the planthoppers have been killed; 0% means that none of the planthoppers have been killed.

Experiment [3] concerns Aedes aegypti strain MONHEIM. Put plainly: Aedes test (AEDSAE surface treatment). The following applies: 24 hours after contact, read-out: efficacy (mortality in %). Here is the method:
Aedes Test (AEDSAE Surface Treatment)
(§4) Solvent: acetone+2000 ppm rapeseed oil methyl ester (RME)
To produce an appropriate active compound formulation, the active compound is dissolved in the solvent (2 mg/ml). The active compound formulation is pipetted onto a glazed tile and, after it has dried off, adult mosquitoes of the species Aedes aegypti strain MONHEIM are placed onto the treated tile. The exposure time is 30 minutes. 24 hours after contact with the treated surface, mortality in % is determined. 100% means that all mosquitoes have been killed; 0% means that none of the mosquitoes have been killed.

Experiment [4] deals with Anopheles funestus strain FUMOZ-R. Nature of the experiment: Anopheles test (ANPHFU surface treatment). The following applies: 24 hours after contact, read-out: efficacy (mortality in %). Here is the method: Anopheles Test (ANPHFU Surface Treatment)
as §4
To produce an appropriate active compound formulation, the active compound is dissolved in the solvent (2 mg/ml). The active compound formulation is pipetted onto a glazed tile and, after it has dried off, adult mosquitoes of the species Anopheles funestus strain FUMOZ-R (Hunt et al., Med Vet Entomol. 2005 Sep.; 19 (3):271-5) are placed onto the treated tile. The exposure time is 30 minutes.
24 hours after contact with the treated surface, mortality in % is determined. 100% means that all mosquitoes have been killed; 0% means that none of the mosquitoes have been killed.

In experiment [5] the test system is Ctenocephalides felis. Nature of the experiment: Ctenocephalides felis in vitro contact test with adult cat fleas. The following applies: application rate 5 μg/cm^2 (=500 g/ha); after 48 h. The gist of the method:
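Glass tubes coated with acetone solutions of compound (900 ppm giving 5 μg/cm^2), dried, then held 5-10 adult cat fleas at room temperature and ambient humidity. After 48 h, dead or moribund fleas were scored; efficacy expressed as percent affected.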

The next experiment has as its system Lucilia cuprina. Put plainly: Lucilia cuprina test. The following applies: application rate 100 ppm; L1 larvae; after 2 days. The gist of the method:
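About 20 first-instar larvae were placed in vessels of minced horsemeat with compound at the desired concentration. Compound was dissolved in DMSO and diluted in water. Percent kill scored after 2 days.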

The subject of another experiment is Boophilus microplus. Put plainly: Boophilus microplus injection test. The following applies: application rate 20 μg/animal, after 7 days. An outline of the steps:
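Compound dissolved in DMSO; 1 μl injected into the abdomen of engorged adult female ticks, five per group, kept in climate-controlled room. Efficacy scored after 7 days from fertile egg laying (100% = no fertile eggs; 0% = all fertile), with unclear eggs held ~42 days until hatching.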

The test system of a further experiment is Myzus persicae. Put plainly: Myzus persicae spray test. The following applies: application rate 500 g/ha; after 5 days. Here is the method:
Myzus persicae—Spray Test
Solvent: 78 parts by weight of acetone • • 1.5 parts by weight of dimethylformamide
as §2, §3
Discs of Chinese cabbage leaves (Brassica pekinensis) infested by all stages of the green peach aphid (Myzus persicae) are sprayed with an active compound formulation of the desired concentration.
After 5 days, the efficacy in % is determined. 100% means that all the aphids have been killed; 0% means that no aphids have been killed.

The subject of a further experiment is Tetranychus urticae. Nature of the experiment: Tetranychus urticae spray test, OP-resistant. The following applies: application rate 500 g/ha; after 6 days. The gist of the method:
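Bean leaf discs carrying all stages of OP-resistant Tetranychus urticae were sprayed with compound in acetone/dimethylformamide diluted in water containing alkylaryl polyglycol ether emulsifier (1000 ppm). Mortality scored after 6 days as % efficacy (100% = all mites killed).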

The next experiment relates to Nezara viridula. Put plainly: Nezara viridula spray test. The following applies: application rate 500 g/ha; after 4 days. Here is the method:
Nezara viridula—Spray Test
as §1, §2, §3
Barley plants (Hordeum vulgare) infected with larvae of the Southern green shield bug (Nezara viridula) are srayed with an active compound formulation of the desired concentration.
After 4 days, the efficacy in % is determined. 100% means that all of the shield bugs have been killed; 0% means that none of the shield bugs have been killed.

The next experiment relates to Meloidogyne incognita. Nature of the experiment: Meloidogyne incognita test. The following applies: application rate 20 ppm; after 14 days. Here is the method: Meloidogyne incognita Test
Solvent: 125.0 parts by weight of acetone
To produce a suitable active compound formulation, 1 part by weight of active compound is mixed with the stated amount of solvent and the concentrate is diluted to the desired concentration with water.
Vessels are filled with sand, active compound solution, an egg/larvae suspension of the southern root-knot nematode (Meloidogyne incognita) and lettuce seeds. The lettuce seeds germinate and the plants develop. The galls develop on the roots.
After 14 days, the nematicidal efficacy in % is determined by the formation of galls. 100% means that no galls were found; 0% means that the number of galls on the treated plants corresponds to the untreated control.

The next experiment relates to Musca domestica. Put plainly: Musca domestica test. The following applies: application rate 100 ppm; adult houseflies; after 2 days. Here is the method: Solvent: dimethyl sulfoxide
To produce a suitable active compound formulation, 10 mg of active compound are mixed with 0.5 ml of dimethyl sulfoxide, and the concentrate is diluted with water to the desired concentration.
Vessels containing a sponge treated with sugar solution and the desired concentration of active compound formulation are populated with 10 adult houseflies (Musca domestica).
After 2 days, the kill in % is determined. 100% means that all of the flies have been killed; 0% means that none of the flies have been killed.

Where [6] appears, read: application rate 20 mg/m^2, exposure 30 minutes.
Setting [7] is: application rate 100 mg/m^2, exposure 30 minutes.

Turning to `CON(C)CCOc1cnc(COc2cccc3c(Cl)c(Cl)ccc23)c(F)c1` [Example 22, 2-[(6-{[(5,6-dichloro-1-naphthyl)oxy]methyl}-5-fluoropyridin-3-yl)oxy]-N-methoxy-N-methylethanamine], the “efficacy (ticks dead or moribund)” value in the experiment on Rhipicephalus sanguineus is 100%. The pest or weed control at 500 g/ha was 100% in the experiment on Phaedon cochleariae (Phaedon cochleariae, 168 h, read-out: efficacy) and 100% in the experiment on Spodoptera frugiperda (Spodoptera frugiperda, 168 h, read-out: efficacy). The mortality at 20 mg/m2 in experiment [1] (setting [6]), in [3] (setting [6]) and in experiment [4] (setting [6]) was 80 to 100% in each case. For the same molecule, the mortality at 100 mg/m2 in experiment [1] (setting [7]), in [3] (setting [7]) and in experiment [4] (setting [7]) was 80 to 100% throughout. Further, the “efficacy (kill in %)” value in the experiment with Ctenocephalides felis [2] was 90%; in the experiment with Lucilia cuprina it was 100%. The molecule also gave an efficacy with Nilaparvata lugens of 90%. Besides, the “efficacy (fleas dead or moribund)” value in the experiment with Ctenocephalides felis [5] amounted to 100%. Also, the pest or weed control at 0.02 mg in the experiment on Boophilus microplus (Rhipicephalus microplus, 168 h, read-out: efficacy (laying of fertile eggs)) was found to be 100%.

For the molecule `CON(C)CCOc1cnc(COc2ccc(F)c(-c3cccc(OC(F)(F)F)c3)c2)c(F)c1` [Example 50], the efficacy with Phaedon cochleariae is on record as 100%; in the experiment on Myzus persicae, 90%; in the experiment on Spodoptera frugiperda, 100%; with Tetranychus urticae, 100%; with Nilaparvata lugens, 100%; with Nezara viridula it was 100%.

As for `CON(C)CCOc1cnc(COc2ccc(F)c(-c3cccc(OC(F)(F)F)c3)c2)c(C)c1` [Example 59], in the experiment with Rhipicephalus sanguineus, the “efficacy (ticks dead or moribund)” value is reported as 100%. Also, the efficacy is given as 83% in the experiment with Phaedon cochleariae, 90% in the experiment on Myzus persicae, 100% with Spodoptera frugiperda and 100% with Tetranychus urticae. Moreover, the “efficacy (fleas dead or moribund)” value in the experiment with Ctenocephalides felis [5] came out at 100%. Moreover, the “efficacy (kill in %)” value with Lucilia cuprina was 100%. Further, the “efficacy (laying of fertile eggs)” value in the experiment on Boophilus microplus came to 100%.

Turning to `CON(C)CCOc1cnc(COc2cccc(-c3cccc(OC(F)(F)F)c3)c2)c(F)c1` [Example 53], the “efficacy (ticks dead or moribund)” value with Rhipicephalus sanguineus came out at 100%. Besides, the efficacy was determined as 100% in the experiment on Phaedon cochleariae; 90% in the experiment on Myzus persicae; 100% with Spodoptera frugiperda; 100% in the experiment with Tetranychus urticae; 100% with Nilaparvata lugens. The “efficacy (fleas dead or moribund)” value with Ctenocephalides felis [5] is given as 100%. For the same molecule, in the experiment with Lucilia cuprina, the “efficacy (kill in %)” value came out at 100%. In addition, the “efficacy (laying of fertile eggs)” value in the experiment on Boophilus microplus was determined as 100%.

With `CON(C)CCOc1cnc(COc2ccc3oc4ccccc4c3c2)c(F)c1` [Example 20], the “efficacy (ticks dead or moribund)” value in the experiment with Rhipicephalus sanguineus is 100%. Further, the efficacy with Phaedon cochleariae, with Spodoptera frugiperda and in the experiment with Nilaparvata lugens was 100% in each case. Further, the “efficacy (kill in %)” value in the experiment on Ctenocephalides felis [2] is given as 95%; in the experiment on Lucilia cuprina, 100%. Further, the “efficacy (fleas dead or moribund)” value with Ctenocephalides felis [5] is listed as 100%. In addition, the “efficacy (laying of fertile eggs)” value with Boophilus microplus is 100%.

In the case of `CC(=O)N1CCC(Oc2ccc(COc3ccc(Cl)c4ccccc34)cn2)C1` (stereo not shown) [Example 4], in the experiment on Meloidogyne incognita, the “nematicidal efficacy (formation of galls)” value is on record as 90%. Also, the efficacy in the experiment on Phaedon cochleariae and in the experiment on Spodoptera frugiperda was 100% in each case. Moreover, the figures for the “efficacy (kill in %)” value in the experiment with Musca domestica, with Ctenocephalides felis [2] and with Lucilia cuprina were 80%, 100% and 100%, respectively. Further, the “efficacy (laying of fertile eggs)” value in the experiment on Boophilus microplus is given as 100%.

Consider `CON(C)CCOc1cnc(COc2ccc(Cl)c(-c3cccc(OC(F)(F)F)c3)c2)c(F)c1` [Example 48], for which the “efficacy (ticks dead or moribund)” value in the experiment on Rhipicephalus sanguineus came out at 100%. Also, the efficacy with Phaedon cochleariae was determined as 100%; with Myzus persicae, 90%; in the experiment with Spodoptera frugiperda, 100%; in the experiment with Tetranychus urticae, 100%. In addition, in the experiment with Ctenocephalides felis [5], the “efficacy (fleas dead or moribund)” value worked out at 100%. Further, the “efficacy (kill in %)” value in the experiment with Lucilia cuprina turned out to be 100%. For the same molecule, the “efficacy (laying of fertile eggs)” value in the experiment with Boophilus microplus was found to be 100%.

`CON(C)CCOc1ccc(COc2ccc(F)c(-c3cccc(OC(F)(F)F)c3)c2)cn1` [Example 10]: the efficacy was 100% in the experiment with Phaedon cochleariae, 90% in the experiment on Myzus persicae, 100% in the experiment with Spodoptera frugiperda and 100% in the experiment with Tetranychus urticae.

One may read the mortality as the percentage killed.

Source of the values: patent publication US11827616B2, “Heterocyclic compounds as pesticides” (Discovery Purchaser Corporation, priority 2018, dated 2023).
